Where “and” joins values, the source holds several entries; their conditions need not be identical. Equal entries are not always repeated. Structures can show the parent of a compound that is named as a salt. Where two headings read alike, the source gives them in different places.

Five molecules from US20240016775A1, “ANTI-CORONAVIRUS APPLICATION OF POLY ADP RIBOSE POLYMERASE INHIBITOR” (FUKANG (SHANGHAI) HEALTH TECHNOLOGY CO., LTD, priority 2020, published 2024) can be followed below.

Data set [1] deals with SARS-CoV-2.
Data set [2] has as its system SARS-CoV-2. The data set can be described thus: Time-of-addition assay (duration of action) in Vero E6 cells. Type of data set: cell-based. To be noted: CVL218 20 μM, remdesivir 10 μM, 14 h after infection.
A short description of data set [3]: Body weight of rats, 28 days oral administration and 28 days without. Type of data set: in vivo, Sprague-Dawley rats. The following applies: oral 20/60/160 mg/kg, then 28 days off. On the procedure: (§1) Sprague-Dawley rats were purchased from Animal Experiment Center of Shanghai, China. The experimental animals were housed in groups in wire cages, with no more than 6 animals per cage. The experimental conditions were good (temperature 25±2° C.; relative humidity 50±20%) and light-dark cycle (12 hours/12 hours). 144 Sprague-Dawley rats were randomized into 4 groups (18 animals/gender/group). CVL218 was administered at doses of 20, 40, 60 and 160 mg/kg. For all groups, 20 rats (10 animals/gender/group) were randomly selected, euthanized on day 28, and sections of various tissues and organs were obtained and frozen. Ten (5/gender/group) animals were euthanized after a 28-day drug-free period, and sections of their tissues and organs were taken and frozen. Six animals (3/gender/group) were euthanized after blood samples were collected. For pharmacokinetics and safety evaluations, the blood concentrations, clinical symptoms, mortality and body weight of animals were examined.

The nature of data set [4]: Pharmacokinetic study of CVL218 in rats. Type of data set: in vivo, Sprague-Dawley rats. The protocol:
as §1

The test system of another data set is IL-6 production in PBMCs. The class given is cell-based. To be noted: 12 hours.
Data set [5] is described as follows: Tissue distribution study of CVL218 in rats (LC-MS-MS). To be noted: for Tissue concentration, Brain / Tissue concentration, Heart / Tissue concentration, Kidney / Tissue concentration, Liver / Tissue concentration, Lung / Tissue concentration, Spleen / Tissue concentration, Stomach: oral 20 mg/kg. Type of data set: in vivo, Sprague-Dawley rats. The protocol:
Sprague-Dawley rats were randomized into 3 time-point groups (3 animals/gender/group). At 3, 6 and 8 hours after CVL218 administration, animals were sacrificed, and the brain, heart, lung, liver, spleen, stomach and kidney tissues were collected. The tissue samples were washed with ice-cold physiological saline and weighed after excess liquid was removed with paper towels. After tissue sample solutions were weighed, they were stored at −20±2° C. until the drug concentration was determined by LC-MS-MS.

The test system of data set [6] is SARS-CoV-2. As to the kind of experiment: microbe, parasite or virus in culture. Type of data set: cell-based. To be noted: for inhibition at 3 µM: read-out: Inhibiting rate, %, 3 μM.
A short description of data set [7]: Safety study in cynomolgus monkeys (body weight). Type of data set: in vivo. To be noted: 5/20/80 mg/kg, 28 days, then 28 days off. On the procedure:
Healthy male and female monkeys, aged 3-4 years, were purchased from Landao Biotechnology, Guangdong, China. Animals were fed in accordance with the Guide for Care and Use of Laboratory Animals. The animals were randomized (5 animals/gender/group), and were fed with CVL218 via nasogastric at dose levels of 0 (control), 5, 20 and 80 mg/kg. Monkeys were observed twice daily for any changes in viability/mortality and behavior, response to treatment or health status.

Data set [8] is described as follows: Cytotoxicity test on Vero-E6 cells (CCK-8). Type of data set: cell-based. The following applies: African green monkey, 48 h, read-out: CC50 (50% cytotoxic concentration). The protocol: (§2) 2.1 Experimental Groups: • 1) Mefuparib hydrochloride (CVL218) group • 2) DMSO control group • 3) Olaparib group • 4) Cell control group: containing only cells, without adding drugs • 5) Blank control group (only medium without cells)
(§3) Mefuparib hydrochloride was obtained from Pukang (Shanghai) Health Technology Co., Ltd., with a purity of >99.0%. It was dissolved in DMSO and then diluted in gradients according to Table 4 below (the maintenance solution was DMEM medium). Serial dilutions were performed for DMSO according to the same dilution gradients.
(§4) Vero-E6 cells were seeded into 96-well culture plates at 1×10^4 cells/well, and cultured in DMEM containing 10% fetal bovine serum for 16 hours to become 80% pellets, then the cell culture medium was aspirated and discarded from each well, the cells were washed once with sterile PBS, and different drugs (200 μl/well) diluted in the cell maintenance solution were added to each well according to the experimental groups, with 3 duplicate wells set up for each group, and then the wells were placed in a 37° C., 5% CO2 incubator for 48 h.
(§5) For the DMSO control group, DMSO diluted with the cell maintenance solution to the corresponding concentration was added, and for the cell control group, 200 μl of the cell maintenance solution was added. For the blank control group, only cell maintenance solution without cells was added.
(§6) 2.3.2 Detection of toxicity of mefuparib hydrochloride and Olaparib on Vero-E6 The cell state was observed and recorded under an inverted microscope, and the toxicity of the drug to Vero-E6 cells was detected according to the operation instructions of the CCK-8 kit: 20 μl of CCK-8 solution was added to all experimental wells and control wells, and the cell culture plate was placed in a 37° C., 5% CO2 incubator for 1 hour, and then its absorbance value at the wavelength of 450 nm was measured using a multifunctional microplate reader.

In a further data set the test system is Vero-E6 cells. The data set can be described thus: Cytotoxicity test on Vero-E6 cells (CCK-8). The class given is cell-based. To be noted: 30 μM. The protocol: as §2, §3, §4, §5, §6
The mark [9] stands for this setting: Severe acute respiratory syndrome coronavirus 2, Vero C1008, 48 h, Vero-E6, MOI 0.05, 48 h.

For orientation: Cmax means the highest concentration seen after dosing. For orientation: Tmax means the time from dosing to the highest level. A word on the EC50: it is the concentration at which the effect is half-maximal. For `CNCc1ccc(-c2cc3cc(F)cc(C(N)=O)c3o2)cc1.Cl` [CVL218, mefuparib hydrochloride], the “Cytopathic effect in infected cells” value in the data set on SARS-CoV-2 [1] (25 μM) is “No apparent cytopathic effect”. In addition, in the data set on SARS-CoV-2 [1] (5, 15, 25 μM, 14 h after infection, versus DMSO treated cells), the “Expression of the viral nucleoprotein (NP)” value is “significantly lower”. For the same molecule, in the data set on SARS-CoV-2 [2], the “Antiviral activity, after the virus enters” value is recorded as “significantly inhibit the replication after viral entry” and the “Antiviral activity, when the virus enters” value is reported as “partially antagonize viral entry”. Besides, the “Antiviral activity, whole process treatment” value with SARS-CoV-2 [2] (versus DMSO) is “stronger antiviral activity”. In data set [3], the “Body weight versus control group” value is “no significant difference in body weight”. In data set [4] (oral 20 mg/kg, Female), the AUC0-t was 2196 ± 228 ngh/mL, the “AUC0-∞” value is on record as 2222 ± 241 ngh/mL, the Cmax came out at 502 ± 80 ng/mL and the “MRT0-∞” value is 3.16 h. In [4] (oral 20 mg/kg, Female), the time of peak concentration (Tmax) stood at 3.0 h and the t1/2 was 1.1 ± 0.16 h. In addition, in data set [4] (oral 20 mg/kg, Male), the AUC0-t was 1070 ± 176 ngh/mL, the “AUC0-∞” value amounted to 1111 ± 192 ngh/mL, the maximum concentration (Cmax) came to 234 ± 35 ng/mL and the “MRT0-∞” value turned out to be 3.91 h. In addition, in [4] (oral 20 mg/kg, Male), the Tmax came out at 4.0 h and the t1/2 is 1.19 ± 0.09 h. In [4] (oral 20 mg/kg, Total), the AUC0-t came to 1633 ± 643 ngh/mL, the “AUC0-∞” value turned out to be 1666 ± 639 ngh/mL, the Cmax came out at 368 ± 157 ng/mL and the “MRT0-∞” value is recorded as 3.54 h. Besides, in data set [4] (oral 20 mg/kg, Total), the Tmax worked out at 3.5 h and the t1/2 was found to be 1.15 ± 0.13 h. Besides, in [4] (oral 40 mg/kg, Female), the AUC0-t is listed as 5220 ± 1113 ngh/mL, the “AUC0-∞” value was found to be 5242 ± 1115 ngh/mL, the Cmax came to 940 ± 117 ng/mL and the “MRT0-∞” value stood at 4.05 h. Besides, in [4] (oral 40 mg/kg, Female), the Tmax is recorded as 2.0 h and the t1/2 is on record as 1.29 ± 0.21 h. Besides, in [4] (oral 40 mg/kg, Male), the AUC0-t turned out to be 2802 ± 967 ngh/mL, the “AUC0-∞” value is listed as 2830 ± 983 ngh/mL, the Cmax is 510 ± 259 ng/mL and the “MRT0-∞” value stood at 4.51 h. Further, in [4] (oral 40 mg/kg, Male), the Tmax was found to be 3.0 h and the t1/2 is listed as 1.3 ± 0.33 h. Besides, in data set [4] (oral 40 mg/kg, Total), the AUC0-t amounted to 4011 ± 1620 ngh/mL, the “AUC0-∞” value is reported as 4036 ± 1620 ngh/mL, the Cmax was 725 ± 296 ng/mL and the “MRT0-∞” value is reported as 4.28 h. Besides, in data set [4] (oral 40 mg/kg, Total), the Tmax is 2.5 h and the t1/2 was found to be 1.3 ± 0.24 h. The “Reduction of CpG-induced IL-6 production” value in the data set on IL-6 production in PBMCs (1 μM) is listed as 50%. In the data set with IL-6 production in PBMCs (3 μM), the “Reduction of CpG-induced IL-6 production” value is reported as 72.65%. Also, in [5], the “Tissue/serum drug concentration ratio, Brain” value was found to be 9.728 ± 1.130; the “Tissue/serum drug concentration ratio, Heart” value is 16.514 ± 1.348; the “Tissue/serum drug concentration ratio, Kidney” value came out at 41.307 ± 5.391; the “Tissue/serum drug concentration ratio, Liver” value came out at 46.780 ± 5.215. In addition, in [5], the “Tissue/serum drug concentration ratio, Spleen” value worked out at 54.897 ± 6.250 and the “Tissue/serum drug concentration ratio, Stomach” value was found to be 22.133 ± 7.130. Further, the “Tissue/serum drug concentration ratio, Lung” value in [5] (hydrochloride) was 188 and 188.364 ± 28.467. Further, in data set [5] (180 min), the “Tissue concentration, Brain” value turned out to be 3580 ± 416; the “Tissue concentration, Heart” value came out at 6077 ± 496; the “Tissue concentration, Kidney” value was 15201 ± 1984; the “Tissue concentration, Liver” value is listed as 17215 ± 1919. For the same molecule, in data set [5] (180 min), the “Tissue concentration, Lung” value is 69318 ± 10476; the “Tissue concentration, Spleen” value came to 20202 ± 2300; the “Tissue concentration, Stomach” value worked out at 8145 ± 2624. Moreover, in [5] (360 min), the “Tissue concentration, Brain” value stood at 998 ± 220; the “Tissue concentration, Heart” value was determined as 1390 ± 292; the “Tissue concentration, Kidney” value was 3903 ± 594; the “Tissue concentration, Liver” value was 2187 ± 859. Moreover, in [5] (360 min), the “Tissue concentration, Lung” value came to 18858 ± 2365; the “Tissue concentration, Spleen” value came out at 6358 ± 1058; the “Tissue concentration, Stomach” value came to 1871 ± 813. Also, in data set [5] (480 min), the “Tissue concentration, Brain” value turned out to be 317 ± 55; the “Tissue concentration, Heart” value is recorded as 275 ± 80; the “Tissue concentration, Kidney” value amounted to 993 ± 327; the “Tissue concentration, Liver” value came to 213 ± 88. For the same molecule, in data set [5] (480 min), the “Tissue concentration, Lung” value is recorded as 4183 ± 847; the “Tissue concentration, Spleen” value is 1475 ± 324; the “Tissue concentration, Stomach” value is given as 569 ± 293. Moreover, the “Inhibiting rate, %” value with SARS-CoV-2 [6] (3 μM, Vero-E6, MOI 0.05, 48 h, hydrochloride) was 35% and 35.16%. The EC50 in the data set on SARS-CoV-2 [6] (different batches, hydrochloride, read-out: EC50 against SARS-CoV-2) is 7.67 µM and 5.12 µM. For the same molecule, the “Body weight versus control group” value in data set [7] is recorded as “no significant difference in body weight”.

`O=C(c1cc(Cc2n[nH]c(=O)c3ccccc23)ccc1F)N1CCN(C(=O)C2CC2)CC1` [Olaparib, olaparib, reference compound]: the CC50 at 48 h in data set [8] was in the range of 100 to 300 µM. Also, in the data set with SARS-CoV-2 [6] (Severe acute respiratory syndrome coronavirus 2, Vero C1008, 48 h, 3.2 μM, Vero-E6, MOI 0.05, 48 h, different batches, read-out: Inhibiting rate, %), the inhibition at 3.2 µM is ~12%.

As for `CCOC(=O)C1=C[C@@H](OC(CC)CC)[C@H](NC(C)=O)[C@@H](N)C1` [Oseltamivir], the inhibition at 3 µM with SARS-CoV-2 [6] (setting [9]) is -13.5%.

As to `CC(=O)N[C@H]1[C@H]([C@H](O)[C@H](O)CO)OC(C(=O)O)=C[C@@H]1N=C(N)N` [Zanamivir], the inhibition at 3 µM in the data set on SARS-CoV-2 [6] (setting [9]) is -10.7%.

`CNCc1ccc(-c2cc3cc(F)cc(C(N)=O)c3o2)cc1` [mefuparib hydrochloride]: the CC50 at 48 h in data set [8] is ~92 µM. The “Inhibitory effect on the cells (toxicity)” value with Vero-E6 cells is “no inhibitory effect on the cells”.
